From PMC5767893 (ACS Medicinal Chemistry Letters, 2017) come the findings set out here.

The nature of series [1]: Mouse microsomal stability. As to conditions: microsomes. It counts as in vitro ADME.
In the next series the target is T1, p300 HAT domain (Homo sapiens, UniProt Q09472).
T1 sequence (Q09472 1287-1663 limits assumed): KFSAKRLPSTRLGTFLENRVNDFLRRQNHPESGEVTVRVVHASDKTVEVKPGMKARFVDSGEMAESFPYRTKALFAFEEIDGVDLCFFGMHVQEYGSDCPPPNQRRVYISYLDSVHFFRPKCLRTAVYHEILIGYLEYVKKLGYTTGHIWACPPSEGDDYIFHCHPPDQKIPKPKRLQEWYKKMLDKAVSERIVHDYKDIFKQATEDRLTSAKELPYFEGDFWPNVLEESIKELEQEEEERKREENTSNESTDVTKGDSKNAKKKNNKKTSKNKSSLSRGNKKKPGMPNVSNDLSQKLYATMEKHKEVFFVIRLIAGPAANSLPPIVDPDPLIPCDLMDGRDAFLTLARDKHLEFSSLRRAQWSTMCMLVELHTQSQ
Particulars: for LE (ligand efficiency): LE = −1.4 log Ki/# heavy atoms.

The nature of the next series: Plasma protein binding. It counts as in vitro ADME. Particulars: mouse.
The conditions of series [2]: mouse.
Series [3] is described as follows: Nonspecific microsomal binding. It counts as in vitro ADME. Particulars: human, microsomes.
A further series in a line: in vivo. As to conditions: mouse, plasma, po, 1 mg/kg.

In general, CLint scaled refers to a measure of how fast metabolising enzymes remove a compound, apart from limits set by blood flow. A low value points to greater metabolic stability. One may read the fraction unbound as free concentration divided by total concentration. Usually AUC stands for concentration integrated over time. Higher therefore signals high exposure.

`CNC(=O)Nc1ccc2c(c1)CC[C@@]21OC(=O)N(CC(=O)N(Cc2ccccc2)[C@@H](C)C2CC2)C1=O` [Compound 22]: in series [1], the CLint scaled is 188 L/h/kg and the “mouse microsomal stability CL scaled” value worked out at 107 L/h/kg.
Consider `CC(C1CC1)N(Cc1ccccc1)C(=O)CN1C(=O)NC(Cc2c[nH]c3ccccc23)C1=O` (stereo not drawn) [Compound 1], for which the “LE (ligand efficiency)” value on p300 HAT domain is listed as 0.23. The “LipE (lipid efficiency)” value at p300 HAT domain (LipE = −log Ki – clogP) is 3.
On to `CNC(=O)Nc1ccc2c(c1)CC[C@@]21OC(=O)N(CC(=O)N(Cc2ccc(F)cc2)[C@H](C2CC2)C(F)(F)F)C1=O` [Compound 23], for which the fraction unbound in the series “Plasma protein binding” is 0.002; in series [3], 0.22. The compound also came in with a F % oral in series [2] of 45%. The compound also had a CLint scaled in series [1] of 181 L/h/kg. Also, the “mouse microsomal stability CL scaled” value in series [1] stood at 41 L/h/kg. Further, in “in vivo”, the AUC is 1.1 µg·h/mL.
Turning to `Cc1ccccc1C1NC(=O)N(CC(=O)N(Cc2ccccc2)[C@@H](C)C2CC2)C1=O` (stereo partly drawn) [Compound 3b], the “LE (ligand efficiency)” value on p300 HAT domain is recorded as 0.27.
For `CNC(=O)Nc1ccc2c(c1)CC[C@]21NC(=O)N(CC(=O)N(Cc2ccccc2)[C@@H](C)C2CC2)C1=O` [Compound 20], the “oral AUC” value in series [2] (10 mg/kg oral dose) is on record as “no exposure”.
